Test results: patent US6835382B2, “Ii peptide therapeutics to enhance antigen presentation” (University of Massachusetts, priority 1996, dated 2004)

Tested on: murine E^k MHC class II allele
Assay: antigenic peptide prepulse assay, E^k allele (fixed APC prepulsed with PGCC81-104)
Assay type: cell-based
Details: for Activity in antigenic peptide prepulse assay, E^k (baseline = 1.0): prepulse 1.25 μM antigenic peptide
Experimental: In a second type of assay, the “peptide prepulse assay”, the antigenic peptide is incubated with paraformaldehyde-fixed APC for 6 h. The APC are washed and incubated for 24 h with the AE101 series homolog and the T cell hybridoma specific for the antigenic peptide. After that incubation, an aliquot of the culture supernatant is transferred to a second culture to measure the relative degree of T hybridoma stimulation, as reflected in the effect of released interleukins on the growth of an interleukin-dependent, indicator cell line, as described above.
The two above described assays measure different aspects of the molecular mechanism of the AE101 series of peptides. In the “simultaneous assay”, AE101 series peptides are thought to induce the release of endogenously bound peptides and to permit the binding of the second, specific antigenic peptide which is relatively abundant in the culture fluid. The AE101 series peptides enhance antigenic peptide-specific T cell responses in simultaneous assays. In the “peptide prepulse” assay, the specific antigenic peptide becomes bound to MHC class II molecules on the surface of the fixed APC during the 6 h prepulse incubation. The effect of the AE101 series homologs is then thought to release that antigenic peptide, resulting in an apparent suppression of the immune response.
The AE101 series peptides are thought to contact the MHC class II molecules at a discrete site outside the antigenic peptide-binding groove. AE101 peptide binding to this “Ii-KEY” site is thought to induce a conformational change in the MHC class II molecules accelerating the dissociation of previously bound antigenic peptide. […] The AE101 series peptides thus inhibit antigenic peptide-specific T cell responses in the “peptide prepulse” assays.
Antigenic peptide-specific T cell activation was measured by the following procedure. Mitomycin C-treated A20 cells (A^dE^d) or CH27 cells APC (A^kE^k) were generated by incubating 5×10^6 cells/mL for 20 min at 37° C. with 0.025 mg/mL of mitomycin C (Sigma) in Dulbecco's Modified Eaglel's Medium (DMEM)/10 mM N-2(hydroxyethylpiperazine-N″[2-ethanesulfonic acid] (HEPES), followed by two washes with four volumes of DMEM-5% fetal calf serum (FCS), 10 mM HEPES. Fixed APC were generated by treating 1×10^6 cells/mL for 5 min with 0.5% paraformaldehyde in PBS (pH 7.2), followed by two washes with four volumes of DMEM-10% FCS, 10 mM HEPES. T cell hybridomas were irradiated 2200 rads before each assay.
The “peptide prepulse assay” was carried out under essentially the same conditions as described for the “simultaneous assay” with the following modifications. Fixed APC were first incubated for 6 h at 1×10^6 cells/mL in complete DMEM-5% FCS in 24-well microculture plates (1 mL/well) with antigenic peptide, followed by four washes with 10 volumes of DMEM-5% FCS. The cells were then exposed to varying concentrations of AE101 series peptide (64 μM, 16 μM, 4 μM, and 1 μM) for 24 h in the presence of the T cell hybridoma specific to the antigenic peptide. Interleukin release from these cultures was measured by proliferation of HT-2 cells to interleukins in supernatants transferred from the primary culture. Generally, a single dose of 64 μM of each AE101 series peptide was used. The baseline T cell response was measured by culturing T hybridoma cells with the antigenic peptide-prepulsed APC in the absence of AE101 series peptides.
Table 19: Activities of C-terminal truncation analogs of AE101 in an antigenic peptide prepulse assay. […] Paraformaldehyde-treated APC (fixed APC) expressing MHC class II molecules were incubated with antigenic peptide for 6 h (HEL106-116 for E^d and PGCC81-104 for E^k). After this incubation, the prepulsed APC were washed and cultured with T hybridoma cells and AE101 series peptides. The antigenic peptide concentration during the prepulse was 12 μM for Ed and 20 μM for E^k. The AE101 series peptide concentrations were 64 μM for E^d and 16 μM for E^k. […]

[1] = Table 25, AE peptide 64 μM, prepulse 2.5 μM antigenic peptide, supernatant 1:10
[2] = Table 26, AE peptide 64 μM, supernatant 1:8
[3] = Table 20, AE peptide 16 μM, prepulse 20 μM antigenic peptide, supernatant 1:2

## Ac-LRMKLPK-NH2 [AE114]
Table 22, AE peptide 16 μM, prepulse 20 μM antigenic peptide, supernatant 1:2
  Activity in antigenic peptide prepulse assay, E^k (baseline = 1.00): 0.15
Table 23, as printed: antigenic peptide prepulse 64 μM, AE peptide 1:8 μM, supernatant 1:2
  Activity in antigenic peptide prepulse assay, E^k (baseline = 1): 0.78
Table 24, AE peptide 64 μM, prepulse 0.625 μM antigenic peptide, supernatant 1:8
  Activity in antigenic peptide prepulse assay, E^k (baseline = 1.00): 0.78
[1]
  Activity in antigenic peptide prepulse assay, E^k (baseline = 1.00): 0.79
[2]
  Activity in antigenic peptide prepulse assay, E^k (baseline = 1.0): 0.98
Table 27, antigenic peptide prepulse 1.25 μM, AE101 series peptide 64 μM, HT-2 supernatant dilution 1:8
  T cell response relative to baseline without AE peptide (None = 1.0), E^k: 0.69
Table 28, AE peptide 64 μM, supernatant 1:4
  Activity in antigenic peptide prepulse assay, E^k (baseline = 1.0): 0.78

## Ac-Y E MKLPKSAK-NH2 [AE136]
[3]
  Activity in antigenic peptide prepulse assay, E^k (baseline = 1.00): 0.97

## Ac-LRMKLP N-NH2 (Ac-LRMKLPN-NH2) [AE246]
[2]
  Activity in antigenic peptide prepulse assay, E^k (baseline = 1.0): 0.98

## Ac-Y L MKLPKSAK-NH2 [AE142]
[3]
  Activity in antigenic peptide prepulse assay, E^k (baseline = 1.00): 0.46

## Ac-LRNKNPF-NH2 [AE348]
[1]
  Activity in antigenic peptide prepulse assay, E^k (baseline = 1.00): 0.72

## Ac-LRLK HArg PK-NH2 [AE341]
[1]
  Activity in antigenic peptide prepulse assay, E^k (baseline = 1.00): 1.10

## Ac-Y M MKLPKSAK-NH2 [AE141]
[3]
  Activity in antigenic peptide prepulse assay, E^k (baseline = 1.00): 0.52
